Assay results published in PubChem BioAssay AID540268 (Broad Institute, 2011).
The source made the active and inactive calls. No rule for the calls is given here.

Experiment: reduced viability of parasite-Hsp90 expressing yeast – ATP luminescence, 48 h, cherry-picked samples, anti-malarial Hsp90 inhibitor project, dose response (AID 540268);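 as to activity change, negative = inhibition: 0% = neutral control wells and -100% = positive control wells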
Conditions: yeast expressing the parasite Hsp90, ATP luminescence

Row | SMILES | AC50 [µM] | activity change, negative = inhibition (at 26 µM (top of the series))
1 | Oc1ccccc1N=Nc1nc(-c2ccccc2)c(-c2ccccc2)[nH]1 | 1.98 | 
2 | CC(C)(C)C(=O)NCC12C=CC(O1)C1C(=O)N(c3ccccc3)C(=O)C12 (stereo unspecified) | 5.05 | 
3 | O=C(NN1C(=O)/C(=C/c2ccc(O)c([N+](=O)[O-])c2)SC1=S)c1ccccc1Cl | 4.13 | 
4 | Cc1cc(C2CCCCC2)n(O)c(=O)c1 | 1.19 | 
5 | CC(C)=CCc1c(O)ccc(C2COc3c(CC=C(C)C)c(O)cc(O)c3C2=O)c1O (stereo unspecified) |  | -110% (inactive)
6 | Oc1ccc(Cl)cc1/C=C/c1ccc2cccc(O)c2n1 | 2.66 | 
7 | CCCCC(CC)CN=C(N)NC(N)=NCCCCCCN=C(N)NC(N)=NCC(CC)CCCC (stereo unspecified) | 4.34 | 
8 | COC(=O)C1=C(C(=O)OC)C2OC1c1cc3ccccc3cc12 | 1.92 | 
9 | O=c1c(-c2ccccc2)c(-c2ccccc2)oc2cc(O)cc(O)c12 | 8.72 | 
10 | Oc1ccc2ccccc2c1N=Nc1ccccn1 | 2.66 | 
11 | Oc1ccc(O)c2c1C1(Cl)C(Cl)=C(Cl)C2(Cl)C1(Cl)Cl | 3.87 | 
12 | COc1ccc(NC2CCN(C3CC(=O)N(c4ccc(F)c(Cl)c4)C3=O)CC2)cc1 (stereo unspecified) | 2.61 | 
13 | Cc1cc(/C=C\c2ccc3cc(N(C)C)ccc3[n+]2C)c(C)n1-c1ccccc1 | 4.39 | 
14 | CCOc1ccccc1-c1c2cc(O)c(=O)cc-2oc2cc(O)c(O)cc12 | 4.21 | 
15 | CN(O)C(=S)c1ccccc1 | 4.38 | 
16 | CCOc1ccc(Br)cc1C1=NN(C(C)=O)C(c2ccc([N+](=O)[O-])s2)O1 (stereo unspecified) | 8.12 | 
17 | CC(C)CCOc1cccc(OCC(=O)Nc2ccncc2)c1 | 4.84 | 
18 | O=C(/C=C/c1ccnc2ccccc12)c1cccs1 | 4.64 | 
19 | O=C1C=CC(=O)N1N(c1ccccc1)c1ccccc1 | 3.38 | 
20 | Cc1cccc(Nc2nc(N)c([N+](=O)[O-])c(N3CCCC(C)C3)n2)c1 (stereo unspecified) | 2.03 | 
21 | Oc1ccc(N=Nc2ccc3ccccc3c2)cc1 | 4.26 | 

Row | SMILES | AC50 [µM] | activity change, negative = inhibition (at 26 µM (top of the series))
22 | Cc1ccc(NC(=O)c2cc(N3C(=O)C=CC3=O)ccc2N2CCOCC2)cc1 | 0.605 | 
23 | Cc1ccc(S(=O)(=O)Nc2ccc3cc([N+](=O)[O-])ccc3c2[N+](=O)[O-])cc1 | 11.9 | 
24 | COC(=O)c1ccc(N2C(=O)CC(N3CCC(O)(c4ccc(Br)cc4)CC3)C2=O)cc1 (stereo unspecified) | 3.37 | 
25 | CC(=NNc1nc2ccccc2o1)c1ncccn1 | 1.33 | 
26 | CC(=O)N1N=C(c2ccccc2)OC1c1ccc([N+](=O)[O-])s1 (stereo unspecified) | 8.65 | 
27 | CCCC1COC(Cn2cncn2)(c2ccc(C)cc2)O1 (stereo unspecified) | 0.628 | 
28 | O=C1CC(c2ccccc2)CC(O)=C1C=Nc1cccc(Cl)c1 (stereo unspecified) | 3.26 | 
29 | COc1ccc2c(c1)C=C(C(=O)NCc1ccc(Cl)cc1)CO2 | 4.21 | 
30 | O=C(Nc1nc(-c2ccccc2)c(-c2ccccc2)o1)c1ccc(F)cc1 | 8.21 | 
31 | C=CCn1c(O)c(C2=c3ccccc3=NC2=O)c2ccccc21 | 0.844 | 
32 | CCS(=O)(=O)Nc1cccc(-c2cc(-c3ccccc3)c3cc(C)ccc3n2)c1 | 4.55 | 
33 | Cc1ccc(NS(=O)(=O)c2ccc(N3CCN(c4ccc(O)cc4)CC3)c([N+](=O)[O-])c2)c(C)c1 | 5.7 | 
34 | Cc1ccc2[nH]c(C)c(/C=N/Nc3nc4ccccc4s3)c2c1 | 2.63 | 
35 | COc1cccc(N=Nc2ccc3cccnc3c2O)c1 | 2.39 | 
36 | CCN1C(=O)/C(=C\C(=O)c2cccs2)c2cc(Br)ccc21 | 4.28 | 
37 | O=C(c1ccccc1)c1cc(Cl)ccc1N1C(=O)C=CC1=O | 0.432 | 
38 | O=C(Nc1cc(Cl)ccc1-n1cncn1)c1ccc([N+](=O)[O-])s1 | 4.2 | 
39 | COC(=O)c1ccc(NC(=O)c2nc(S(=O)(=O)Cc3cccc(C)c3)ncc2Cl)cc1 | 3.99 | 
40 | O=C(/C=C/N1CCOCC1)c1ccc(-c2ccccc2)cc1 | 4.23 | 
41 | CC(=O)N(C1=C(Cl)C(=O)c2ccccc2C1=O)C1CCCCC1 | < 0.195 | 
42 | Oc1c(CN2CCN(c3ccc(F)cc3)CC2)cc(Cl)c2cccnc12 | < 0.195 | 

Row | SMILES | AC50 [µM] | activity change, negative = inhibition (at 26 µM (top of the series))
43 | CN(C)CC1CC/C(=C\c2ccc(O)cc2)C1=O (stereo unspecified) | 5.54 | 
44 | Cc1ccc(C(C)C)c(OCc2ccc(C(=O)N/N=C/c3cccc(O)c3O)cc2)c1 | 1.62 | 
45 | Cc1[nH]n(-c2ccc([N+](=O)[O-])cc2)c(=O)c1C=NCCN1CCN(C(=O)c2ccccc2F)CC1 | 6.44 | 
46 | Cc1cc(N2CCN(c3cccc(C)c3C)CC2)nc(-c2ccccc2)n1 | 2.47 | 
47 | CCC(C)(C)c1ccc(OCCCC[n+]2cccc(C)c2C)c(C(C)(C)CC)c1 | 4.06 | 
48 | OC(Cn1cncn1)(c1ccccc1)c1ccccc1 | 1.57 | 
49 | CCCNC(=O)c1nnsc1S(=O)(=O)c1ccc(Cl)cc1 | 0.758 | 
50 | Oc1c(Br)cc(Br)cc1C=NCc1ccc(F)cc1 | 8.5 | 
51 | O=[N+]([O-])c1ccc(O)c2ncccc12 | 1.66 | 
52 | C[C@@]12C(=O)Nc3ccc(F)cc3C(=O)N1[C@H]1c3ccccc3OC[C@@H]1[C@@H]2c1ccccc1 | < 0.195 | 
53 | COc1ccc(CCN2C(=O)C=CC2=O)cc1OC | 1.41 | 
54 | CCCC(=O)NC(c1ccccc1)c1ccc2cccnc2c1O (stereo unspecified) | 4.7 | 
55 | Cc1ccc(-n2nnnc2C(Cl)(Cl)c2nnnn2-c2ccc(C)cc2)cc1 | 1.12 | 
56 | CN(C)/C=C/C(=O)/C=C/c1cn(-c2ncc(C(F)(F)F)cc2Cl)c2ccccc12 | 4.18 | 
57 | COc1ccc(C(=O)/C=C2\C(=O)Nc3ccc(Br)cc32)cc1 | 2.22 | 
58 | Cc1[nH]c(N=Nc2ccccc2)nc1N=Nc1ccccc1 | 4.41 | 
59 | COC[C@H]1OC(=O)c2coc3c2[C@@]1(C)C1=C(C3=O)[C@@H]2CCC(=O)[C@@]2(C)C[C@H]1OC(C)=O | 0.215 | 
60 | O=C(O)CC/C(=N/Nc1ccc([N+](=O)[O-])cc1)C(=O)O | 2.22 | 
61 | CCC1C/C(=C\c2cccnc2)C(=O)/C(=C/c2cccnc2)C1 (stereo unspecified) | 9.06 | 
62 | COc1ccc(C(C[N+](=O)[O-])c2c(C)[nH]n(-c3ccccc3)c2=O)cc1 (stereo unspecified) | 7.77 | 
63 | CCC(=O)NC(c1cccs1)c1cc(Cl)c2cccnc2c1O (stereo unspecified) | 3.73 | 

Row | SMILES | AC50 [µM] | activity change, negative = inhibition (at 26 µM (top of the series))
64 | CCOc1ccc(N2C(=O)/C(=C\c3ccccc3OC)S(=O)(=O)C2c2cccc([N+](=O)[O-])c2)cc1 (stereo unspecified) | 21.6 | 
65 | CSc1nc2ccc(S(=O)(=O)NC3CCCCC3)cc2s1 | 2.92 | 
66 | CCCCCCCCCCCCCCCC[N+](C)(C)CC | 4.04 | 
67 | O=C1CC(N2CCCN(C3CC(=O)N(c4ccc(F)cc4)C3=O)CC2)C(=O)N1c1ccc(F)cc1 (stereo unspecified) | 3.49 | 
68 | CC1OC(CC(=O)O)CC2=C1C(=O)c1c(O)cccc1C2=O (stereo unspecified) | < 0.195 | 
69 | CN(C)/C=C/C(=O)c1ccc(Oc2ccccc2)cc1 | 3.92 | 
70 | COc1ccc(C(=O)O/N=C2\C(=O)N(C)c3ccccc32)cc1 | < 0.195 | 
71 | O=C1/C(=C/c2ccncc2)CCC/C1=C\c1ccncc1 | 4.25 | 
72 | CC(=NNC(=S)N1CCC1)c1ccccn1 | 1.72 | 
73 | COC1CCC(OC2CC(C3(C)CCC4(CC(O)C(C)C(C(C)/C=C(\C)C(=O)C(C)CC(C)C(=O)O)O4)O3)OC3(OC(C4OC(O)(CO)C(C)CC4C)CC3C)C2C)OC1C (stereo unspecified) | 4.84 | 
74 | Oc1ccc(Br)cc1/C=N/Nc1ccccn1 | 2.67 | 
75 | CC(=O)C1=C(c2ccc(Br)cc2)C(=O)c2ccccc2C1=O | 7.82 | 
76 | C/C(=N\NC(=O)c1cc2ccccc2cc1O)c1ccccn1 | 8.31 | 
77 | CC(=O)Oc1ccccc1C(=O)C=Cc1cccc([N+](=O)[O-])c1 | 1.66 | 
78 | COc1cccc(/C=N/NC(=O)C(=O)Nc2ccccc2OC(F)(F)C(F)F)c1O | 0.731 | 
79 | COc1ccc(C(=O)NC(=S)NNC(=O)c2cnccn2)cc1 | 2.98 | 
80 | COc1ccc(OC)c(N2C(=O)NC(=O)/C(=C/c3ccc([N+](=O)[O-])s3)C2=O)c1 | 4.26 | 
81 | CC1(C)N=C(SCC(=O)Nc2ccc(Cl)cc2)C(c2ccc(Cl)cc2)=N1 | 8.73 | 
